Measurements taken from patent US20110039763A1, “TARGETED ANTIMICROBIAL MOIETIES” (C3 JIAN, INC., priority 2009, published 2011).
Entries after “also recorded” stand apart in the source; their conditions may differ.

Assays:
microorganisms [1] = assay: Morphology, biofilm and growth disrupting peptides (Table 5); type: cell-based; set-up: key: A: Peptide aggregates; B: Less hyphal formation; Clumps; Diffuse clumps and small polyps; F: Diffuse growth; H: Thin; I: Growth inhibition; Microcolony formation; Rippled; Small polyps; Thick; W: Halo formation on top, microlonies on bottom
Text: In certain embodiments peptides that induce alterations in phenotype or other biological activities can also be used as antimicrobial effector moieties.

microorganisms [2] = assay: Targeting peptide binding to target microorganisms (Tables 3, 10, 12); conditions: microorganism(s) the targeting peptide binds; binding in aqueous buffers varied with peptide solubility, preferably 1x PBS
microorganisms [3] = assay: Peptide activities: targeting/binding, antimicrobial, growth or phenotype altering (Tables 7, 8); type: cell-based; conditions: peptides having multiple activities

Substance	Organism, effect: M. luteus (microorganisms [1])	Target(s) (microorganisms [2])	Activities (microorganisms [3])	Organism, effect: S. epidermidis (microorganisms [1])	Organism, effect: B. subtilis (microorganisms [1])	Organism, effect: E. coli (microorganisms [1])	Organism, effect: MRSA (microorganisms [1])	Organism, effect: C. jejuni (microorganisms [1]; C. jejuni)	Organism, effect: E. faecalis (microorganisms [1])	Organism, effect: S. pneumoniae (microorganisms [1]; S. pneumoniae)
PF-255: peptide having multiple activities (chain 1 DHKINESQHNPFRSDSNKQNVDFF; chain 2 DHKINESQHNPFRSDSNKQNVDFF; Peptide with targeting and/or antimicrobial activity)	M. luteus (M)	P. aeruginosa	G B							
PF-271: peptide having multiple activities (chain 1 AAQPQTTSP; chain 2 AAQPQTTSP; Peptide with targeting and/or antimicrobial activity)	M. luteus (T)	S. epidermidis; also recorded: M. luteus; also recorded: P. aeruginosa; also recorded: A. baumannii	G B							
PF-273: peptide having multiple activities (chain 1 LVGALLIFVALIYMVLKGNADKN; chain 2 LVGALLIFVALIYMVLKGNADKN; Peptide with targeting and/or antimicrobial activity)		S. epidermidis; also recorded: M. luteus; also recorded: P. aeruginosa; also recorded: A. baumannii	G B	S. epidermidis (C)						
PF-276: peptide having multiple activities (chain 1 LDLALSTNSLNLEGFSF; chain 2 LDLALSTNSLNLEGFSF; Peptide with targeting and/or antimicrobial activity)	M. luteus (M)	S. epidermidis	G B							
PF-292: peptide having multiple activities (chain 1 SFVSTTVRLIFEESKRYKF; chain 2 SFVSTTVRLIFEESKRYKF; Peptide with targeting and/or antimicrobial activity)		S. epidermidis; also recorded: B. subtilis; also recorded: B. fragilis	G B	S. epidermidis (C)	B. subtilis (C)					
PF-294: peptide having multiple activities (chain 1 DFLVNFLWFKGELNWGKKRYK; chain 2 DFLVNFLWFKGELNWGKKRYK; Peptide with targeting and/or antimicrobial activity)		S. epidermidis; also recorded: C. difficile	G B	S. epidermidis (C)						
PF-297: peptide having multiple activities (ISKGIDDIVYVINKILSIGNIFKIIKRK; Peptide with targeting and/or antimicrobial activity)		S. epidermidis; also recorded: B. subtilis; also recorded: B. fragilis	G B	S. epidermidis (C)	B. subtilis (C)					
PF-301: peptide having multiple activities (GIVLIGLKLIPLLANVLN; Peptide with targeting and/or antimicrobial activity)		C. difficile	G B	S. epidermidis (C)	B. subtilis (C)					
PF-306: peptide having multiple activities (GCILPHKKDNYNYIMSKFQDLVKITSKK; Peptide with targeting and/or antimicrobial activity)		C. difficile	G B		B. subtilis (C)					
PF-313: peptide having multiple activities (YITSHKNARAIIKKFERDEILEEVITHYLNRK; Peptide with targeting and/or antimicrobial activity)		S. epidermidis; also recorded: C. difficile	G B	S. epidermidis (C)						
PF-344: peptide having multiple activities (DERLPEAKAIRNFNGSVMVLGR; Peptide with targeting and/or antimicrobial activity)		B. subtilis; also recorded: C. jejuni	G B			E. coli (A)				
PF-350: peptide having multiple activities (LAVILRAIVY; Peptide with targeting and/or antimicrobial activity)		S. epidermidis; also recorded: E. coli; also recorded: E. faecalis; also recorded: C. jeikeium; also recorded: C. jejuni	G B	S. epidermidis (C)		E. coli (C)	MRSA (C)			
PF-360: peptide having multiple activities (chain 1 MEQKVKVIFVPRSKPDNQLKTFVSAVLFKA; chain 2 MEQKVKVIFVPRSKPDNQLKTFVSAVLFKA; Peptide with targeting and/or antimicrobial activity)		S. epidermidis; also recorded: B. subtilis; also recorded: E. coli; also recorded: P. aeruginosa; also recorded: C. albicans; also recorded: E. faecalis; also recorded: C. jeikeium; also recorded: C. jejuni	G B	S. epidermidis (S)		E. coli (C)	MRSA (H)			
PF-362: peptide having multiple activities (chain 1 NIERILKEKVWMIRCVE; chain 2 NIERILKEKVWMIRCVE; Peptide with targeting and/or antimicrobial activity)		S. epidermidis; also recorded: E. coli; also recorded: P. aeruginosa; also recorded: C. albicans; also recorded: E. faecalis; also recorded: C. jejuni	G B			E. coli (C)	MRSA (C)			
PF-363: peptide having multiple activities (chain 1 SMLSVTVMCLMHASVAANQAMEKKV; chain 2 SMLSVTVMCLMHASVAANQAMEKKV; Peptide with targeting and/or antimicrobial activity)		B. subtilis; also recorded: E. coli; also recorded: P. aeruginosa; also recorded: C. albicans; also recorded: S. pneumoniae; also recorded: E. faecalis	G B	S. epidermidis (S)		E. coli (C)	MRSA (H)	C. jejuni (D)	E. faecalis (D)	S. pneumoniae (R)
PF-370: peptide having multiple activities (chain 1 VIFLHKESGNLKEIFY; chain 2 VIFLHKESGNLKEIFY; Peptide with targeting and/or antimicrobial activity)		S. epidermidis; also recorded: E. coli; also recorded: P. aeruginosa; also recorded: E. faecalis; also recorded: C. jejuni	G B	S. epidermidis (C)		E. coli (R)	MRSA (C)			
PF-373: peptide having multiple activities (chain 1 HFYLLFER; chain 2 HFYLLFER; Peptide with targeting and/or antimicrobial activity)		S. epidermidis and E. coli and P. aeruginosa and C. albicans and MRSA and E. faecalis and C. jejuni	G B	S. epidermidis (M)			MRSA (M)			
PF-378: peptide having multiple activities (chain 1 ESAKSNLNFLMQEEWALFLLL; chain 2 ESAKSNLNFLMQEEWALFLLL; Peptide with targeting and/or antimicrobial activity)		B. subtilis; also recorded: B. fragilis; also recorded: E. coli; also recorded: P. aeruginosa; also recorded: C. jeikeium	G B	S. epidermidis (M)			MRSA (M)			
PF-381: peptide having multiple activities (chain 1 QGANPCQQVGFTVNDPDCRLAKTV; chain 2 QGANPCQQVGFTVNDPDCRLAKTV; Peptide with targeting and/or antimicrobial activity)		E. coli; also recorded: P. aeruginosa; also recorded: C. jejuni	G B	S. epidermidis (C)		E. coli (R)	MRSA (C)		E. faecalis (C)	
